Laboratory results published in patent US12178878B2, “Amyloid peptide scaffolds coordinate with Alzheimer's disease drugs” (The University of Massachusetts, priority 2018, dated 2024).

Assays:
[1] = tested on: […] (SEQ ID NO: 3) amyloid peptide; test: Amyloid peptide/inhibitor coordination in dilute solution (1 mg/mL), drug captured after pellet washings; type: binding; details: for AD compound captured, Wash 1 / AD compound captured, Wash 2 / AD compound captured, Wash 3: 150 μM inhibitor loaded; for AD compound captured, Wash 1: 1st pellet wash; for AD compound captured, Wash 2: 2nd pellet wash; for AD compound captured, Wash 3: 3rd pellet wash; for fraction of the 150 μM loaded drug incorporated into the peptide: UV-Vis, first wash
Experimental: Amyloid Peptide/Inhibitor Coordination Studies in Dilute Solutions. […] Subsequently, 1 mL of DI water was added to wash the pellet (followed by vortexing until obtaining a homogenous dispersion) in order to remove any unbound inhibitor. The samples were then centrifuged again at the same conditions so as to pelletize the amyloid materials, and the supernatant was decanted. Another 1 mL of DI water was then added into the pellet, the mixture was vortexed, and the physically bound inhibitor into the dilute amyloid peptide dispersions was quantified by UV-Vis between 200-600 nm and MS. This step is denoted as wash 1 in our study. Two additional pellet purification cycles were realized with replacement of the decanted volume each time with 1 mL of fresh DI water (denoted as wash 2 and wash 3 respectively). The inhibitor-containing peptides amyloids were normalized at 400 nm over the respective no inhibitor-containing amyloid peptides at the specific washing step, and the measured inhibitor peak values (at 315 nm and 323 nm) were subtracted from that of the amyloid peptide carriers at the same wavelength and concentration. The amount of inhibitors coordinated with the amyloid peptide carriers was quantified based on a calibration curve by both UV-Vis and MS.
The peak at 315 nm was selected for inhibitor quantification due the absence of peaks at that range for both peptides. […] However, the peak at 315 nm was selected for inhibitor quantification, and the following equation was used for both peptides: A315=A315 ([…]/Donepezil)−A315 ([…])
The peak at 323 nm was used for inhibitor quantification due the absence of peaks at that range for both peptides.

[2] = tested on: […] (SEQ ID NO: 4) amyloid peptide; test: Incubation of amyloid gel containing inhibitor in PBS at 37° C., drug retained; type: binding; details: YFTGAIIGNFY 5 mg/mL; for AD compound captured after incubation, Wash 2: 2nd pellet wash; for AD compound captured after incubation, Wash 3: 3rd pellet wash
Experimental: Incubation of Amyloid Gels-Containing Inhibitors in PBS at 37° C. […] (SEQ ID NO: 4) amyloid gels were prepared at 10 mg/mL (1 mL) and a 0.1 M PBS solution of Donepezil was added at 1000 μM (1 mL) and was left to stir overnight (the final peptide concentration was diluted to 5 mg/mL). A control of 1 mL 0.1 M PBS was also prepared. The complexed amyloid/inhibitor was sequentially centrifuged, and the same volume of water (2 mL) was added in the pellet to wash it (followed by vortexing until obtaining a complete dispersion) and remove the unbound inhibitor (wash 1). The sample was centrifuged, the pellet was isolated, and 2 mL of 0.1 M PBS was added, followed by overnight incubation under stirring at 37° C. The inhibitor-containing peptide was then pelletized, the supernatant was decanted, and the peptide/inhibitor dispersion was quantified after addition of 2 mL water (wash 2). A second washing step with 2 mL fresh water was subsequently realized and the pellet was quantified again (wash 3). Example 2: Coordination of the Designed Amyloid Peptides with AD drugs in Dilute Solution.

[3] = incubated at 37° C. in PBS for one day after wash 1, by MS
[4] = incubated at 37° C. in PBS for one day after wash 1, by UV-Vis

Compound | AD compound captured, Wash 1 ([1]; […] 1 mg/mL, by MS) [µM] | AD compound captured, Wash 2 ([1]; […] 1 mg/mL, by MS) [µM] | AD compound captured, Wash 3 ([1]; […] 1 mg/mL, by MS) [µM] | AD compound captured, Wash 2 ([1]; […] 1 mg/mL, by UV-Vis) [µM] | AD compound captured, Wash 3 ([1]; […] 1 mg/mL, by UV-Vis) [µM] | fraction of the 150 μM loaded drug incorporated into the peptide ([1]; […] 1 mg/mL) | AD compound captured, Wash 1 ([1]; FYTGAIIGNYF 1 mg/mL, by MS) [µM] | AD compound captured, Wash 2 ([1]; FYTGAIIGNYF 1 mg/mL, by MS) [µM] | AD compound captured, Wash 3 ([1]; FYTGAIIGNYF 1 mg/mL, by MS) [µM] | AD compound captured, Wash 1 ([1]; FYTGAIIGNYF 1 mg/mL, by UV-Vis) [µM] | AD compound captured, Wash 1 ([1]; FYTGAIIGNYF 1 mg/mL, by UV-Vis, listed as Donepezil) [µM] | AD compound captured, Wash 2 ([1]; FYTGAIIGNYF 1 mg/mL, by UV-Vis) [µM] | AD compound captured, Wash 3 ([1]; FYTGAIIGNYF 1 mg/mL, by UV-Vis) [µM] | fraction of the 150 μM loaded drug incorporated into the peptide ([1]; FYTGAIIGNYF 1 mg/mL) | AD compound captured after incubation, Wash 2 [2, 3] [µM] | AD compound captured after incubation, Wash 3 [2, 3] [µM] | AD compound captured after incubation, Wash 2 [2, 4] [µM] | AD compound captured after incubation, Wash 3 [2, 4] [µM]
Nc1c2c(nc3ccccc13)CCCC2 [tacrine] | 29 ± 4 | 24 ± 8 | 23 ± 6 | 17 ± 4 | 13 ± 3 | approximately 1/7 | – | – | – | – | – | – | – | – | – | – | – | –
COc1cc2c(cc1OC)C(=O)C(CC1CCN(Cc3ccccc3)CC1)C2 (stereo not drawn) [donepezil] | – | – | – | – | – | – | 51 ± 3 | 47 ± 0 | 43 ± 4 | 33 | 33 ± 4 | 28 ± 5 | 20 ± 5 | approximately ⅕ | 128 ± 12 | 120 ± 18 | 121 ± 25 | 110 ± 31
